What all share (experiment): DTP human tumour cell line panel, 48 h
Experiment [1] concerns SN12C renal.
The subject of experiment [2] is SF-268 CNS.
Experiment [3] deals with SK-OV-3 ovarian.
Experiment [4] deals with HT29 colon.
Experiment [5] concerns CCRF-CEM leukemia.
Experiment [6] has as its system KM12 colon.
Experiment [7] deals with M14 melanoma.
The test system of experiment [8] is COLO 205 colon.
Experiment [9] deals with MDA-N.
Experiment [10] concerns SNB-19 CNS.
The test system of experiment [11] is HS 578T breast.

Structures are written as SMILES.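 The compound was tested at five concentrations on cells cultured in 96-well plates, with a 48-hour exposure period. Here, GI50 denotes the concentration required for 50% inhibition of growth. At the TGI there is no net growth.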

A word on the GI50: it is the concentration that inhibits growth by half. By TGI is commonly meant the concentration at which net growth stops. As for `COc1ccc(C2CC(c3cccc(Nc4ccncc4)c3)=NN2c2cc(Cl)cc(Cl)c2)cc1` (stereo not drawn), the GI50 in experiment [1] is 1.62 µM; in [2], 2.2 µM; in experiment [3], 11.3 µM; in experiment [4], 2.26 µM; in [5], 2.81 µM; in [6] it was 1.77 µM. In addition, the TGI in experiment [1] was 3.16 µM; in [2], 5.62 µM; in [3], 31.4 µM; in experiment [4], 5.46 µM; in experiment [5], above 100 µM; in experiment [6] it was 3.3 µM.
Consider `c1ccc2sc(C3(N4CCCC4)CCCCCC3)cc2c1`, for which the total growth inhibition concentration (TGI) turned out to be 31 µM in experiment [7]; 29.2 µM in experiment [1]; 35.9 µM in [2]; 35 µM in experiment [3]; 30.4 µM in experiment [8]; 19.3 µM in [4]. In addition, the TGI in [9] was found to be 32.1 µM; in [5] it was 24.2 µM; in [10], 29.9 µM; in experiment [6], 26.3 µM.
With `O=[N+]([O-])c1ccc(C=C2C(Cl)=C(Cl)C(Cl)=C2Cl)cc1`, the GI50 in [1] was 3.02 µM; in [2] it was 2.01 µM; in experiment [3], 12.1 µM; in experiment [8] it was 3.2 µM; in experiment [4], 2.64 µM; in experiment [5], 2.21 µM. Also, the GI50 in [10] is 9.68 µM. The TGI is above 100 µM in experiment [1]; 4.4 µM in experiment [2]; 29.9 µM in experiment [3]; above 100 µM in [8]; 7.14 µM in experiment [4]; 6.57 µM in [5]. Also, the TGI in experiment [10] was above 100 µM.
Consider `COc1cc(C[S+]2CCCC2)c(SC)cc1C[S+]1CCCC1`, for which the TGI in experiment [7], in experiment [1], in experiment [2], in experiment [3], in [8] and in experiment [4] was above 100 µM in each case. The TGI in [5] and in [6] was above 100 µM in each case.
Take `CC(C)C1OC23CCCCC2C(C#N)(C#N)C1(C#N)C(=N)O3` (stereo not drawn): the TGI in experiment [7] is 29.8 µM; in [1], 31.4 µM; in experiment [2], 46.6 µM; in [3], above 100 µM; in [8], 33.5 µM; in [4], 43.8 µM. The TGI in [9] was 32.7 µM; in experiment [5], above 100 µM; in [10], above 100 µM; in [11], 42.3 µM.
With `CCCCCN=Cc1c(O)c(O)c(C(C)C)c2cc(C)c(-c3c(C)cc4c(C(C)C)c(O)c(O)c(C=NCCCCC)c4c3O)c(O)c12`, the TGI in [7] was above 100 µM; in [1] it was above 100 µM; in experiment [2], 47.3 µM; in experiment [3], 39.7 µM; in experiment [8], 9.15 µM; in experiment [4], above 100 µM. Also, the TGI is above 100 µM in [5], 18.8 µM in experiment [10], above 100 µM in [11] and 19.8 µM in experiment [6].
On to `NS(=O)(=O)c1nn2c(Br)c(-c3ccccc3)nc2s1`, for which the TGI in [7] worked out at 13.8 µM; in experiment [1], 7.94 µM; in [2] it was 30.9 µM; in experiment [3] it was 28.4 µM; in [8], 18.4 µM; in experiment [4], 8.4 µM. In addition, the TGI amounted to 11 µM in experiment [5], 22.8 µM in experiment [10], 30.7 µM in [11] and 21.3 µM in [6].
Turning to `Cc1cccc(-c2nc3ccc([N+](=O)[O-])cc3c(=O)o2)c1`, the TGI in experiment [1], in experiment [2], in experiment [3], in [8], in [4] and in experiment [9] was above 100 µM throughout. Also, the figures for the TGI in experiment [5], in experiment [11] and in [6] were 96.7 µM, 97.9 µM and above 100 µM, respectively.
`N#C/C(C(=O)Nc1ccccc1)=C(/N)N1CCOCC1`: the TGI in experiment [7], in experiment [1], in experiment [3], in experiment [8], in experiment [9] and in experiment [5] was above 100 µM in each case. The TGI in [10] and in [6] was above 100 µM throughout.
Consider `CCc1nc(N)nc(N)c1-c1ccc(Cl)c(Cl)c1`, for which the TGI in experiment [7], in experiment [1], in experiment [2], in experiment [3], in experiment [8] and in experiment [4] was above 100 µM in each case. Also, the TGI in experiment [5], in [10], in experiment [11] and in experiment [6] was above 100 µM in each case.
Regarding `O=C1OC[C@@H]2Cc3cc4c(cc3[C@H](c3ccc5c(c3)OCO5)[C@@H]12)OCO4`, the TGI was above 25 µM in experiment [7]; above 25 µM in experiment [1]; above 25 µM in [8]; above 25 µM in experiment [4]; 21.6 µM in experiment [9]; above 25 µM in experiment [5]. For the same compound, the concentration for total growth inhibition (TGI) in [10] and in experiment [6] was above 25 µM each time.
Turning to `CC(=O)n1nc(-c2ccccc2)n(/N=C/c2ccc([N+](=O)[O-])cc2)c1=O`, the TGI in experiment [7], in experiment [1], in experiment [2], in experiment [3], in experiment [8] and in experiment [4] was above 100 µM in each case. Besides, the TGI in experiment [9], in experiment [5], in [10] and in experiment [6] was above 100 µM in each case.
In the case of `NC(=O)C(N)Cc1ccc(O)cn1` (stereo not drawn), the TGI in experiment [1], in experiment [2], in experiment [8], in experiment [4], in [9] and in [5] was above 100 µM in each case. For the same compound, the TGI in [10], in experiment [11] and in [6] was above 100 µM throughout.
Turning to `CC(=O)OCCn1cnc2nc(Nc3ccccc3)nc(Cl)c21`, the TGI in experiment [1] is above 100 µM; in experiment [2], above 100 µM; in experiment [3], above 100 µM; in [8], 88.1 µM; in experiment [4] it was above 100 µM; in [9], above 100 µM. In addition, the TGI in experiment [5], in experiment [10], in experiment [11] and in experiment [6] was above 100 µM in each case.
Regarding `O/N=C1/COC(C(F)(F)F)(C(F)(F)F)C1`, the TGI in experiment [7], in experiment [1], in [2], in experiment [3], in experiment [8] and in [4] was above 100 µM throughout. For the same compound, the TGI in [10], in experiment [11] and in experiment [6] was above 100 µM each time.
With `COc1nc(C(=O)NNC(=O)c2nc(OC)c3ccccc3c2-c2ccccc2)c(-c2ccccc2)c2ccccc12`, the TGI in experiment [7], in [1], in [2], in [3], in experiment [8] and in [4] was above 100 µM in each case. In addition, the TGI in [5], in experiment [10], in experiment [11] and in experiment [6] was above 100 µM in each case.
As to `O=c1[nH]c(-c2ccc3ccccc3c2)nc2ccccc12`, the concentration for total growth inhibition (TGI) in experiment [7], in experiment [1], in experiment [2], in experiment [3], in experiment [8] and in [4] was above 100 µM throughout. The TGI in experiment [9] was above 100 µM; in experiment [10], 51.4 µM; in [11] it was above 100 µM; in experiment [6], above 100 µM.
As to `Cc1cc(=O)[nH]c(NN2C(Cl)C(=O)C2c2cccc(O)c2)n1` (stereo not drawn), the TGI in [7], in experiment [1], in experiment [2], in experiment [8], in experiment [4] and in [5] was above 100 µM in each case. For the same compound, the TGI in experiment [10] and in experiment [6] was above 100 µM each time.
`O=NN(CCCl)C(=O)NC1CCSc2ccccc21` (stereo not drawn): the TGI in experiment [1], in experiment [2], in experiment [3], in experiment [8], in [4] and in experiment [5] was above 100 µM each time. In addition, the TGI in [10] and in experiment [6] was above 100 µM each time.
In the case of `CN(C)Cc1cc(C(=O)/C=C/c2ccc(Cl)cc2)cc(CN(C)C)c1O`, the TGI in experiment [1] worked out at 28.1 µM; in [2] it was 71.1 µM; in experiment [8] it was 10.7 µM; in experiment [4] it was 18.6 µM; in [9], 25.3 µM; in [5], 94.2 µM. Further, the total growth inhibition concentration (TGI) in experiment [10] worked out at 24.1 µM; in experiment [11] it was 49.3 µM; in [6] it was 19.6 µM.
`O=[N+]([O-])c1ccccc1S(=O)(=O)c1cc(Cl)cc2c1NCCC2`: the TGI in experiment [7], in experiment [1], in experiment [2], in experiment [3], in experiment [8] and in experiment [4] was above 100 µM each time. In addition, the TGI in experiment [5], in experiment [10], in [11] and in [6] was above 100 µM each time.
With `C[C@@H]1C[C@H]2[C@@H]3CCC4=CC(=O)C=C[C@]4(C)[C@@]3(Cl)[C@@H](Cl)C[C@]2(C)[C@@]1(O)C(=O)COP(=O)(O)O`, the TGI is above 100 µM in [7]; 33.1 µM in experiment [1]; above 100 µM in experiment [2]; above 100 µM in [3]; above 100 µM in [8]; above 100 µM in experiment [4]. The TGI in experiment [9], in experiment [10], in experiment [11] and in experiment [6] was above 100 µM each time.
Consider `Cc1ccc(S(=O)(=O)Oc2cc(-c3ccccc3)nc3ccccc23)cc1`, for which the TGI is above 41.5 µM in [1]; above 100 µM in [2]; 5.23 µM in experiment [3]; 1.18 µM in experiment [8]; 7.54 µM in experiment [4]; above 100 µM in experiment [5]. Moreover, the figures for the TGI in experiment [10] and in experiment [6] were 12.3 µM and above 43.5 µM, respectively.
Take `CCOC(=O)C1=C(C)N(C)C23OC4(C(=O)OC)CC2c2ccccc2C1N3C4=O` (stereo not drawn): the TGI in experiment [7], in [1], in experiment [2], in experiment [3], in experiment [8] and in experiment [4] was above 100 µM in each case. Moreover, the TGI in experiment [9], in [5], in experiment [10] and in experiment [6] was above 100 µM each time.
For `COc1ccc(C2CC(=O)CC(c3ccc(OC)cc3)C23C(=O)NC(=O)NC3=O)cc1` (stereo not drawn), the TGI is above 100 µM in experiment [7]; 97.9 µM in experiment [1]; above 100 µM in experiment [2]; 89 µM in experiment [8]; above 100 µM in [4]; 86.4 µM in experiment [9]. The figures for the TGI in experiment [5], in experiment [10] and in experiment [6] were above 100 µM, above 100 µM and 72.9 µM, respectively.
As for `S=C(NCc1ccccc1)c1nc[nH]c1C(=S)NCc1ccccc1`, the TGI in experiment [7] is 20.7 µM; in experiment [1] it was 25 µM; in experiment [2], 19.8 µM; in experiment [3] it was 28.5 µM; in [8] it was 12.9 µM; in [4], 22.7 µM. Besides, the TGI in experiment [9] was 23 µM; in experiment [5], 12.1 µM; in experiment [10], 18.6 µM; in experiment [6] it was 20 µM.
As for `COc1ccc(N=C2SC(=N/N=c3\sc4ccccc4n3C)SC2=Nc2ccc(OC)cc2)cc1`, the TGI in [7], in experiment [1], in experiment [2], in [3], in experiment [8] and in experiment [4] was above 100 µM in each case. For the same compound, the TGI in [9], in experiment [10], in experiment [11] and in experiment [6] was above 100 µM throughout.
As to `Cc1cc2nc3c(C#N)c(-c4ccccc4)cc(Nc4ccc(Cl)cc4)n3c2cc1C`, the TGI in experiment [7], in experiment [1], in [2], in experiment [3], in [8] and in [9] was above 100 µM throughout. The TGI in experiment [5], in [10] and in [6] was above 100 µM in each case.

These data come from PubChem BioAssay (NCI).
